Measured values: patent US9868734B2, “Conjugate of benzofuranone and indole or azaindole, and preparation and uses thereof” (Luoda Biosciences, Inc., priority 2013, dated 2018)
Read-outs that look alike come from different tables or passages of the source.

Experiments:
[1] = test system: human lung adenocarcinoma epithelial cell line A549; test: MTT assay, inhibition of tumor cell growth (A549); type: cell-based; conditions: 72 hours incubation, read-out: IC50 on the tumor cells A549
Experimental: (§1) human hepatocellular carcinoma cell line HepG-2, human lung adenocarcinoma epithelial cell line A549
(§2) Tumor cells were seeded in RPM11640 medium containing 10% calf serum, incubated at 37° C., 5% CO2 in CO2 incubator, and passaged every 2-3 days. Cells at logarithmic growth phase were used for this experiment.
(§3) The cells at logarithmic growth phase were formulated into suspension. The cell viability by trypan blue staining was more than 98%. The cell suspension was divided into several groups: 1 as blank control group (cell suspension plus solvent DMSO); and 2 as experimental groups (cell suspension plus compounds to be tested).
(§4) The drugs were formulated into a stock solution in DMSO, and the concentration of the stock solution was 20 mmol (used within 4 hours). In the experiment, the work solution of the drugs was diluted with RPMI1640 medium containing 10% calf serum under aseptic condition, to a final concentration of […]. The drug concentrations were increased by 2 times (1.25-20 μM).
(§5) The cells in logarithmic growth phase were selected, centrifuged, counted, and formulated into a cell suspension (2.5×10^4/ml) with RPMI1640 medium containing 10% calf serum. The cell suspension were inoculated into 96-well plates at a density of 5000 cells/200 μl per well, incubated for 24 hours at 37° C., 5% CO2. According to the above concentration of the drug, the cells were inoculated to 6 groups (including one control group), with 8 wells per group. After incubating for 72 hours, the viability of cells was measured by MTT assay. The absorbance value (A) was measured with detection wavelength at 540 nm, reference wavelength at 630 nm. The inhibitory rate (I) was calculated by the following equation, where T was the absorbance value of the experimental groups, and C was the absorbance value of the blank control group: I=(1−T/C)×100%
(§6) Equation of regression line was drawn from concentration-inhibitory rate curve, from which the IC50 of tested sample was calculated.

[2] = test system: human hepatocellular carcinoma cell line HepG-2; test: MTT assay, inhibition of tumor cell growth (HepG2); type: cell-based; conditions: 72 hours incubation, read-out: IC50 on the tumor cells HepG2
Experimental: as §1, §2, §3, §4, §5, §6

Row | SMILES | IC50 [1] | IC50 [2] | IC50 ([1]; Homo sapiens) | IC50 ([2]; Homo sapiens)
1 | CC(C)N1C(=O)C(=C2Oc3ccccc3C2=O)c2cc(Cl)cnc21 [Compound 82] | 16 ± 2 µM | 18 ± 2.3 µM | – | –
2 | O=C1Nc2ccc(F)cc2C1=C1C(=O)Oc2ccccc21 [Compound 92] | 31.7 ± 1.5 µM | 15.2 ± 1.2 µM | – | –
3 | CN1C(=O)C(=C2C(=O)Oc3ccccc32)c2ccc(Cl)cc21 [Compound 96] | 17.2 ± 1.6 µM | 14.2 ± 1.3 µM | – | –
4 | O=C1Oc2ccccc2C1=C1C(=O)N(C2OC(CO)C(O)C(O)C2O)c2ccccc21 (stereo not drawn) [Compound 112] | 90.1 ± 4.5 µM | > 100 µM | – | –
5 | O=C1Nc2ccncc2C1=C1C(=O)Oc2ccccc21 [Compound 121] | 11.6 ± 1.1 µM | 15.6 ± 1.2 µM | – | –
6 | CN1C(=O)C(=C2C(=O)Oc3ccccc32)c2cnccc21 [Compound 123] | 5.8 ± 0.8 µM | 9.1 ± 1 µM | – | –
7 | CC(C)N1C(=O)C(=C2C(=O)Oc3ccccc32)c2cnc(F)cc21 [Compound 130] | 28.5 ± 1.6 µM | 19.6 ± 1.3 µM | – | –
8 | O=C1Nc2nc(Cl)ccc2C1=C1C(=O)Oc2ccccc21 [Compound 138] | 12.1 ± 1.4 µM | 25.8 ± 1.7 µM | – | –
9 | Cc1cccc2c1OC(=O)C2=C1C(=O)N(C)c2ncccc21 [Compound 140] | 1.9 ± 0.8 µM | 7.3 ± 0.8 µM | – | –
10 | CC(C)N1C(=O)C(=C2C(=O)Oc3ccc(F)cc32)c2cccnc21 [Compound 150] | 7.9 ± 1.3 µM | 5.6 ± 0.6 µM | – | –
11 | CCN1C(=O)/C(=C2\Nc3ccccc3C2=O)c2ccccc21 [Compound 154, 1-ethyl-indirubin, reference compound] | – | – | 19 ± 1.1 µM | 7.1 ± 0.7 µM
12 | CCN1C(=O)/C(=C2\Nc3ccccc3\C2=N/O)c2ccccc21 [Compound 155, 1-ethyl-indirubin-3′-oxime, reference compound] | – | – | 30.3 ± 1.5 µM | 7 ± 1.3 µM

Continued, values first:

Row | IC50 [1] | IC50 [2] | IC50 ([1]; Homo sapiens) | IC50 ([2]; Homo sapiens) | SMILES
13 | 9.4 ± 0.6 µM | 19 ± 1.1 µM | – | – | CON=C1C(=C2C(=O)N(Cc3ccccc3)c3ccncc32)Oc2ccccc21 [Compound 74]
14 | – | – | 8 ± 1.2 µM | 10 ± 1.4 µM | O=C1Nc2ncccc2/C1=C1/Oc2ccccc2C1=O [Compound 75, 1′-oxo-7-azaindirubin]
15 | 17.4 ± 1.7 µM | 31.5 ± 2.5 µM | – | – | CCN1C(=O)C(=C2Oc3c(Cl)cccc3C2=O)c2cccnc21 [Compound 79]
16 | 25 ± 2.7 µM | 18.5 ± 1.5 µM | – | – | CCN1C(=O)C(=C2Oc3c(Cl)cccc3C2=O)c2cccnc21 [Compound 85]
17 | 87 ± 2.1 µM | 80.1 ± 1.5 µM | – | – | CC(C)N1C(=O)C(=C2Oc3ccccc3C2=NO)c2cc(Cl)cnc21 [Compound 88]
18 | 29 ± 1.8 µM | 30.2 ± 1.5 µM | – | – | CON=C1C(=C2C(=O)N(Cc3ccccc3)c3ncccc32)Oc2ccccc21 [Compound 90]
19 | 7 ± 1.4 µM | 9.2 ± 2 µM | – | – | CCN1C(=O)C(=C2C(=O)Oc3ccccc32)c2ccccc21 [Compound 100]
20 | 35.5 ± 2.9 µM | 3.8 ± 1.5 µM | – | – | CC(C)N1C(=O)C(=C2C(=O)Oc3ccccc32)c2ccccc21 [Compound 106]
21 | 3.7 ± 0.6 µM | 7.4 ± 1.7 µM | – | – | COc1ccc2c(c1)C(=C1C(=O)N(Cc3ccccc3)c3ccccc31)C(=O)O2 [Compound 116]
22 | 39.6 ± 1.7 µM | 27.5 ± 1.3 µM | – | – | O=C1Oc2ccccc2C1=C1C(=O)N(Cc2ccccc2)c2ccc(Cl)cc21 [Compound 119]
23 | 49.1 ± 2.6 µM | 43 ± 2.2 µM | – | – | O=C1Oc2ccccc2C1=C1C(=O)N(Cc2ccccc2)c2cc(Cl)ccc21 [Compound 120]
24 | 4.7 ± 0.9 µM | 8.4 ± 1.3 µM | – | – | CCN1C(=O)C(=C2C(=O)Oc3ccccc32)c2cnccc21 [Compound 127, N-ethyl-1′-oxo-5-azaisoindigo]
25 | 11.5 ± 1.2 µM | 26 ± 2.1 µM | – | – | O=C1Oc2ccccc2C1=C1C(=O)N(Cc2ccccc2)c2ccncc21 [Compound 134]
26 | 26.3 ± 2.1 µM | 35.2 ± 2.3 µM | – | – | CCN1C(=O)C(=C2C(=O)Oc3ccccc32)c2cc(F)cnc21 [Compound 146]
27 | 18.2 ± 1.2 µM | 42.3 ± 1.8 µM | – | – | O=C1Oc2ccccc2C1=C1C(=O)N(Cc2ccccc2)c2ncccc21 [Compound 152]
